Laboratory results from paper PMC9262797, “Spectrum and characterization of bi-allelic variants in MMAB causing cblB-type methylmalonic aciduria” (Human Genetics, 2021).

What was measured:
[1] = biological target: T1, MMAB (recombinant human MMAB, amino acids 56–250) (Homo sapiens, UniProt Q96EY8); experiment: isothermal titration calorimetry; format: binding
T1 construct: N-terminally truncated residues 56-250, mitochondrial leader omitted; homotrimer, native mass 78 kDa by SEC
T1 sequence (Q96EY8 56-250): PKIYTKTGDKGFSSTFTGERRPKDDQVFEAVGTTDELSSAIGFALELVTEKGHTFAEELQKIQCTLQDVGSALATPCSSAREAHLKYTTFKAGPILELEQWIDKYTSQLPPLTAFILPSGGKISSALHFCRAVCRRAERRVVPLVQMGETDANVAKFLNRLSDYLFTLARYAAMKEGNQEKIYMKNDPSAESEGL

[2] = biological target: T1, MMAB (recombinant human MMAB, amino acids 56–250); experiment: fluorescence titration (MMAB into […] MANT-ATP, ex […] / em […] nm); format: binding
[3] = biological target: the molecule itself; experiment: SEC; analytical gel filtration, Superose 6 Increase 10/300 GL, Buffer A (100 mM HEPES pH 7.5, 300 mM KCl, 250 µM MgCl2, 5% glycerol); 100 µl of protein at 25 µM; calibrated with 29, 150 and 443 kDa standards

## Nc1ncnc2c1ncn2[C@@H]1O[C@H](COP(=O)(O)OP(=O)(O)OP(=O)(O)O)[C@@H](O)[C@H]1O [ATP]
[1]
  Kd: 14.2 ± 0.6 µM

## CNc1ccccc1C(=O)O[C@H]1[C@@H](O)[C@H](n2cnc3c(N)ncnc32)O[C@@H]1CO[P@@](=O)(O)O[P@](=O)(O)OP(=O)(O)O [MANT-ATP, 2',3'-O-(N-Methyl-anthraniloyl)-adenosine-5'-triphosphate]
[2]
  Kd: 21.1 ± 3.4 µM

B1: human ATP:cob(I)alamin adenosyltransferase (MMAB), amino acids 56-250 (enzyme, UniProt Q96EY8 56-250, looked up)
chain: PKIYTKTGDKGFSSTFTGERRPKDDQVFEAVGTTDELSSAIGFALELVTEKGHTFAEELQKIQCTLQDVGSALATPCSSAREAHLKYTTFKAGPILELEQWIDKYTSQLPPLTAFILPSGGKISSALHFCRAVCRRAERRVVPLVQMGETDANVAKFLNRLSDYLFTLARYAAMKEGNQEKIYMKNDPSAESEGL
notes: ATP:cob(I)alamin adenosyltransferase (MMAB), human, N-terminally truncated, amino acids 56-250; same residues as in the human MMAB structure of Campanello et al. 2018; also called ATP:cobalamin adenosyltransferase; apo-MMAB; source: recombinant, produced as previously described (Plessl et al. 2017), purified
[3]
  stoichiometry N: 3

B2: human methylmalonyl-CoA mutase (MMUT) (enzyme, UniProt P22033 33-750, looked up)
chain: LHQQQPLHPEWAALAKKQLKGKNPEDLIWHTPEGISIKPLYSKRDTMDLPEELPGVKPFTRGPYPTMYTFRPWTIRQYAGFSTVEESNKFYKDNIKAGQQGLSVAFDLATHRGYDSDNPRVRGDVGMAGVAIDTVEDTKILFDGIPLEKMSVSMTMNGAVIPVLANFIVTGEEQGVPKEKLTGTIQNDILKEFMVRNTYIFPPEPSMKIIADIFEYTAKHMPKFNSISISGYHMQEAGADAILELAYTLADGLEYSRTGLQAGLTIDEFAPRLSFFWGIGMNFYMEIAKMRAGRRLWAHLIEKMFQPKNSKSLLLRAHCQTSGWSLTEQDPYNNIVRTAIEAMAAVFGGTQSLHTNSFDEALGLPTVKSARIARNTQIIIQEESGIPKVADPWGGSYMMECLTNDVYDAALKLINEIEEMGGMAKAVAEGIPKLRIEECAARRQARIDSGSEVIVGVNKYQLEKEDAVEVLAIDNTSVRNRQIEKLKKIKSSRDQALAERCLAALTECAASGDGNILALAVDASRARCTVGEITDALKKVFGEHKANDRMVSGAYRQEFGESKEITSAIKRVHKFMEREGRRPRLLVAKMGQDGHDRGAKVIATGFADLGFDVDIGPLFQTPREVAQQAVDADVHAVGISTLAAGHKTLVPELIKELNSLGRPDILVMCGGVIPPQDYEFLFEVGVSNVFGPGTRIPKAAVQVLDDIEKCLEKKQQSV
notes: methylmalonyl-CoA mutase (MMUT), human, recombinant; also called apo-MMUT; holo-MMUT; source: recombinant, produced as previously described (Plessl et al. 2017), purified
[3]
  stoichiometry N: 2
